From paper PMC9304170, “Chloromethyl Glycosides as Versatile Synthons to Prepare Glycosyloxymethyl‐Prodrugs” (Chemistry (Weinheim an Der Bergstrasse, Germany), 2022) come the findings set out here.

For data set [1], the target named is T1, Abg (Agrobacterium Sp. β-glucosidase) (Agrobacterium sp., UniProt P12614).
T1 sequence (P12614 1-459): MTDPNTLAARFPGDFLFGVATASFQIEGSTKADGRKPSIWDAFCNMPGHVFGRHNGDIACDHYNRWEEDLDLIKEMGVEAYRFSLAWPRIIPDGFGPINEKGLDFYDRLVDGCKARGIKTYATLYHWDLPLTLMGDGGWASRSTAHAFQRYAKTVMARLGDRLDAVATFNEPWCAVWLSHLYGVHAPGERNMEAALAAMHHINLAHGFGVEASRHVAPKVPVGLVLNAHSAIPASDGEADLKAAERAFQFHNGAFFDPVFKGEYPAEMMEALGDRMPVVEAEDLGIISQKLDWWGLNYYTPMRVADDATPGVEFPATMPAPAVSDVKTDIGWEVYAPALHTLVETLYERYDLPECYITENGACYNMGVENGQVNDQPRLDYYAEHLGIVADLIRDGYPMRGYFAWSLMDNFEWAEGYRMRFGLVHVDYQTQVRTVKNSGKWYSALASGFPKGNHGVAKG
As to the kind of experiment: Enzymatic hydrolysis at 13 mM studied by quantitative 1H NMR. Format: biochemical. The following applies: 13 mM substrate in D2O, maleate buffer pD 6.5, Abg 1.6 U/mL, 37 °C.

For data set [2], the target named is T2, Agrobacterium Sp. β-glucosidase (Abg, GH1 family) (Agrobacterium sp., UniProt P12614).
T2 sequence (P12614 1-459): T1 sequence (P12614 1-459)
As to the kind of experiment: Michaelis-Menten kinetics of enzymatic hydrolysis, release of 4-nitrophenol (absorbance at 405 nm). It counts as biochemical. The following applies: transglycosylation suggested for rate enhancement. The method, then: Enzymatic reactions were performed in triplo at pH 6.8 (50 mM final concentration) containing 0.1 % bovine serum albumin at 37 °C.[25] Aliquots of 100 μL were taken at constant time periods and added to 100 μL aq. NaOH (0.1 M) in a 96‐well microtitre plate to quench the enzymatic reaction and ensure maximal absorption of sodium 4‐nitrophenolate as outlined in previous studies.[28] The initial rate (vo) was determined normalized on the ∼0.1 U/mL enzyme concentration and plotted against substrate concentration [S]. Non‐linear regression analysis based on 7–10 concentrations depending on the glycoside, was used to determine the Km and k cat values. k cat values were normalized based on the enzyme concentration. […]
Kinetic evaluation of 4- nitrophenyloxymethyl glycosides. Enzyme reactions were performed in triplicate. Substrate samples (final volume of 1 mL) were prepared by diluting carefully prepared substrate stock solutions with sodium phosphate buffer pH 6.8 (50 mM final concentration) containing 0.1% bovine serum albumin and milliQ to the desired concentration. The samples were equilibrated at 37 °C for at least 5 minutes before the enzyme in 50 mM buffer (2 U per ml, 50 uL) was added. Aliquots of 100 µL were taken at constant time periods and added to 100 µL aq. NaOH (0.1 M) in a 96 well microtiter plate to quench the enzymatic reaction. The absorbance was measured at 405 nm using a Tecan Spark M10 plate reader.
Negative assay controls contained no substrate or no enzyme. Rates of the enzymatic reactions were determined at 7 different substrate concentrations from 0.02 – 1.0 mM. Km and kcat values were determined by nonlinear regression analysis using Graphpad 5.0 (GraphPad Software, San Diego, California USA, www.graphpad.com) for fitting the data. Calibration samples at varying concentration (0.05 – 0.5 mM) were prepared similar to the substrate samples in the enzyme reactions by diluting a carefully prepared 4-nitrophenol stock solution with sodium phosphate buffer pH 6.8 (50 mM final concentration) containing 0.1% bovine serum albumin and milliQ to the desired concentration. […]
(T1 determined as 9.13 sec.) was used. Dynamic measurements were started by heating the sample in the NMR to 37 °C and recording a t0-spectrum. Subsequently Abg (V = 2.05 uL, 0.82 U, 1.64 U/mL) was added to the sample outside of the NMR. The sample was mixed by shaking and quickly reintroduced to the NMR.
The time of enzyme addition was recorded as t0. Spectra were recorded over an appropriate time- scale with the relaxation delay at 3*T1 of the internal standard.
In vivo experiments were performed at the company Charles Rivers (Den Bosch, The Netherlands) in accordance with Dutch law of animal experiments and under approval of the central committee of animal experiments (CCD). Relative and absolute bioavailability may be determined in different animal models and according to different protocols.
The following protocol is typical for determining bioavailability in female Beagle dogs. The animals were deprived from food over a time period of 8 h prior to administration and 2 h after administration of the test molecules. Water was supplied without limitation. On the study day, the animals received test molecule 10h […]
ethanol and 0.9% NaCl + 5% mannitol in water. Blood samples were collected from the jugular vein on the […]

Data set [3] in a line: Control experiments without enzyme (stability in assay buffer). It counts as physicochemical. The following applies: 200 μM, 50 mM phosphate buffer pH 6.8, 37 °C, HPLC.
Data set [4] has as its target T1, Abg (Agrobacterium Sp. β-glucosidase). As to the kind of experiment: Enzymatic conversion of glycoside-drug conjugates at 200 μM analyzed by HPLC. Conditions: 37 °C; for Product release: 200 μM substrate, 50 mM phosphate buffer pH 6.8, Abg 0.1 U/mL. It counts as biochemical.
A short description of data set [5]: pH stability test and stability in formulation. Format: physicochemical. The method, then:
In vivo experiments. […] To investigate the chemical stability towards conditions in the gastrointestinal tract, we performed pH stability test. […] The pharmacokinetic profile of 10 h was studied in a dog‐animal model (adult beagle).

The nature of data set [6]: In vivo pharmacokinetics study after oral gavage, losartan in blood by LC-MS-MS. Details: species or system female Beagle dogs. The following applies: 15 μmol/kg oral gavage, Beagle dog; for Intact conjugate in the blood circulation: LC-MS-MS.

Where “and” joins values, the source holds several entries; their conditions need not be identical. Identical values can stand only once.

With `O=[N+]([O-])c1ccc(OCO[C@@H]2O[C@H](CO)[C@@H](O)[C@H](O)[C@H]2O)cc1` [5 a, 4‐nitrophenyloxymethyl glucoside], the “Release of 4-nitrophenol followed by 1H NMR (in words)” value in data set [1] is “showed release of 4‐nitrophenol”.

As to `O=[N+]([O-])c1ccc(O[C@@H]2O[C@H](CO)[C@@H](O)[C@H](O)[C@H]2O)cc1` [6 a, reference compound], the “Release of 4-nitrophenol followed by 1H NMR (in words)” value in data set [1] is “release of 4‐nitrophenol”. Besides, in data set [2], the “V0 at high substrate concentration (in words)” value is reported as “followed a horizontal asymptote”.

Regarding `O=c1[nH]c(=O)n(CO[C@@H]2O[C@H](CO)[C@@H](O)[C@H](O)[C@H]2O)cc1F` [10 f], the “Degradation in the control experiment (without enzyme)” value in data set [3] was “no degradation was observed”. Moreover, the Product release in data set [4] (0.5 h) was 46% and 45.8±5.2%; in data set [4] (1.0 h), 65.2±1.5%; in data set [4] (2.0 h), 77.8±9.7%.

On to `CCCCc1nc(Cl)c(CO)n1Cc1ccc(-c2ccccc2-c2nnnn2CO[C@@H]2O[C@H](CO)[C@@H](O)[C@H](O)[C@H]2O)cc1` [10 h], for which, in data set [5] (formulation for oral gavage), the Stability in formulation result is listed as “stable in formulation”. Further, in data set [5] (pH 1–2), the “Chemical stability under acidic conditions” value is “stable for 16 h”. The “Release of the parent drug under acidic conditions” value in data set [5] (pH 1–2, 16 h) is “did not show any release of the parent drug”. Further, the “Maximum concentration (Cmax) of losartan versus dosing of parent (in words)” value in data set [6] is given as “higher”. In addition, the “Intact conjugate in the blood circulation” value in data set [6] is reported as “no intact conjugate was detected”; in data set [6] (listed as 19), “no conjugate was detected”. In addition, the “Enzymatic hydrolysis by Abg (in words)” value in data set [4] (200 μM, HPLC, in presence of 5 % ethanol) is on record as “hydrolyzed efficiently”. Also, the Product release is 29.3±0.24% in data set [4] (0.5 h, in presence of 5 % ethanol); 50.4±0.4% in data set [4] (1.0 h, in presence of 5 % ethanol); 77.2±0.7% in data set [4] (2.0 h, in presence of 5 % ethanol).
